Test results from patent US12540143B2, “Methods and compositions for targeted protein degradation” (Ranok Therapeutics (Hangzhou) Co. Ltd., priority 2019, dated 2026).
pIC50: −log10 of the molar value.

Tested on: MV4-11 cells
Test: MV4-11 Cytotoxicity Assay
Type: cell-based, human
Settings: Homo sapiens, MV4-11; 72 hr, CCK-8; read-out: MV4-11 cytotoxicity

SMILES: Cc1sc2c(c1C)C(c1ccc(Cl)cc1)=N[C@@H](CC(=O)NCCOCCN1CCC(Cc3ccc(-n4c(O)nnc4-c4cc(C(C)C)c(O)cc4O)cc3)CC1)c1nnc(C)n1-2 [Compound 37, 2-((6S)-4-(4-chlorophenyl)-2,3,9-trimethyl-6H-thieno[3,2-f][1,2,4]triazolo[4,3-a][1,4]diazepin-6-yl)-N-(2-(2-(4-(4-(3-(2,4-dihydroxy-5-isopropylphenyl)-5-hydroxy-4H-1,2,4-triazol-4-yl)benzyl)piperidin-1-yl)ethoxy)ethyl)acetamide, trifluoroacetic acid]
- pIC50: 6.00 to 7.00

SMILES: Cc1sc2c(c1C)C(c1ccc(Cl)cc1)=N[C@@H](CC(=O)N1CCN(Cc3ccc(-n4c(O)nnc4-c4cc(C(C)C)c(O)cc4O)cc3)CC1)c1nnc(C)n1-2 [Compound 38, 2-((6S)-4-(4-chlorophenyl)-2,3,9-trimethyl-6H-thieno[3,2-f][1,2,4]triazolo[4,3-a][1,4]diazepin-6-yl)-1-(4-(4-(3-(2,4-dihydroxy-5-isopropylphenyl)-5-hydroxy-4H-1,2,4-triazol-4-yl)benzyl)piperazin-1-yl)ethanone, trifluoroacetic acid]
- pIC50: > 7.00

SMILES: Cc1sc2c(c1C)C(c1ccc(Cl)cc1)=N[C@@H](CC(=O)N1CCC(CN3CCN(c4ccc(-n5c(O)nnc5-c5cc(C(C)C)c(O)cc5O)cc4)CC3)CC1)c1nnc(C)n1-2 [Compound 41, (S)-2-(4-(4-chlorophenyl)-2,3,9-trimethyl-6H-thieno[3,2-f][1,2,4]triazolo[4,3-a][1,4]diazepin-6-yl)-1-(4-((4-(4-(3-(2,4-dihydroxy-5-isopropylphenyl)-5-hydroxy-4H-1,2,4-triazol-4-yl)phenyl)piperazin-1-yl)methyl)piperidin-1-yl)ethanone]
- pIC50: > 7.00

SMILES: Cc1sc2c(c1C)C(c1ccc(Cl)cc1)=N[C@@H](CC(=O)N1CCC(N3CCN(Cc4ccc(-n5c(O)nnc5-c5cc(C(C)C)c(O)cc5O)cc4)CC3)CC1)c1nnc(C)n1-2 [Compound 42, (S)-2-(4-(4-chlorophenyl)-2,3,9-trimethyl-6H-thieno[3,2-f][1,2,4]triazolo[4,3-a][1,4]diazepin-6-yl)-1-(4-(4-(4-(3-(2,4-dihydroxy-5-isopropylphenyl)-5-hydroxy-4H-1,2,4-triazol-4-yl)benzyl)piperazin-1-yl)piperidin-1-yl)ethan-1-one, trifluoroacetic acid]
- pIC50: > 7.00

SMILES: Cc1sc2c(c1C)C(c1ccc(Cl)cc1)=N[C@@H](CC(=O)N1CCC(N3CCN(c4ccc(-n5c(O)nnc5-c5cc(C(C)C)c(O)cc5O)cc4)CC3)CC1)c1nnc(C)n1-2 [Compound 43, 2-((6S)-4-(4-chlorophenyl)-2,3,9-trimethyl-6H-thieno[3,2-f][1,2,4]triazolo[4,3-a][1,4]diazepin-6-yl)-1-(4-(4-(4-(3-(2,4-dihydroxy-5-isopropylphenyl)-5-hydroxy-4H-1,2,4-triazol-4-yl)phenyl)piperazin-1-yl)piperidin-1-yl)ethanone, trifluoroacetic acid]
- pIC50: > 7.00

SMILES: Cc1sc2c(c1C)C(c1ccc(Cl)cc1)=N[C@@H](CC(=O)NCC1CCN(C(=O)C3CCN(Cc4ccc(-n5c(O)nnc5-c5cc(C(C)C)c(O)cc5O)cc4)CC3)C1)c1nnc(C)n1-2 (stereo partly drawn) [Compound 45, 2-((S)-4-(4-chlorophenyl)-2,3,9-trimethyl-6H-thieno[3,2-f][1,2,4]triazolo[4,3-a][1,4]diazepin-6-yl)-N-((1-(1-(4-(3-(2,4-dihydroxy-5-isopropylphenyl)-5-hydroxy-4H-1,2,4-triazol-4-yl)benzyl)piperidine-4-carbonyl)pyrrolidin-3-yl)methyl)acetamide, trifluoroacetic acid]
- pIC50: > 7.00

SMILES: Cc1sc2c(c1C)C(c1ccc(Cl)cc1)=N[C@@H](CC(=O)NCC(=O)NCCOc1ccc(-n3c(S)nnc3-c3cc(C(C)C)c(O)cc3O)cc1)c1nnc(C)n1-2 [Compound 48, (S)-2-(4-(4-chlorophenyl)-2,3,9-trimethyl-6H-thieno[3,2-f][1,2,4]triazolo[4,3-a][1,4]diazepin-6-yl)-N-(2-((2-(4-(3-(2,4-dihydroxy-5-isopropylphenyl)-5-mercapto-4H-1,2,4-triazol-4-yl)phenoxy)ethyl)amino)-2-oxoethyl)acetamide]
- pIC50: 6.00 to 7.00

SMILES: Cc1sc2c(c1C)C(c1ccc(Cl)cc1)=N[C@@H](CC(=O)NCCOCCN1CCN(Cc3ccc(-n4c(O)nnc4-c4cc(C(C)C)c(O)cc4O)cc3)CC1)c1nnc(C)n1-2 [Compound 49, 2-((6S)-4-(4-chlorophenyl)-2,3,9-trimethyl-6H-thieno[3,2-f][1,2,4]triazolo[4,3-a][1,4]diazepin-6-yl)-N-(2-(2-(4-(4-(3-(2,4-dihydroxy-5-isopropylphenyl)-5-hydroxy-4H-1,2,4-triazol-4-yl)benzyl)piperazin-1-yl)ethoxy)ethyl)acetamide, trifluoroacetic acid, trifluoroacetic acid, trifluoroacetic acid, trifluoroacetic …]
- pIC50: > 7.00

SMILES: Cc1sc2c(c1C)C(c1ccc(Cl)cc1)=N[C@@H](CC(=O)NCCOc1cccc(CN(C)Cc3ccc(-n4c(O)nnc4-c4cc(C(C)C)c(O)cc4O)cc3)c1)c1nnc(C)n1-2 [Compound 50, 2-((6S)-4-(4-chlorophenyl)-2,3,9-trimethyl-6H-thieno[3,2-f][1,2,4]triazolo[4,3-a][1,4]diazepin-6-yl)-N-(2-(3-(((4-(3-(2,4-dihydroxy-5-isopropylphenyl)-5-hydroxy-4H-1,2,4-triazol-4-yl)benzyl)(methyl)amino)methyl)phenoxy)ethyl)acetamide, trifluoroacetic acid, trifluoroacetic acid, trifluoroacetic acid, trifluoroacetic …]
- pIC50: > 7.00

SMILES: Cc1sc2c(c1C)C(c1ccc(Cl)cc1)=N[C@@H](CC(=O)NCCOCc1ccc(-n3c(O)nnc3-c3cc(C(C)C)c(O)cc3O)cc1)c1nnc(C)n1-2 [Compound 52, 2-((6S)-4-(4-chlorophenyl)-2,3,9-trimethyl-6H-thieno[3,2-f][1,2,4]triazolo[4,3-a][1,4]diazepin-6-yl)-N-(2-((4-(3-(2,4-dihydroxy-5-isopropylphenyl)-5-hydroxy-4H-1,2,4-triazol-4-yl)benzyl)oxy)ethyl)acetamide]
- pIC50: 6.00 to 7.00

SMILES: Cc1sc2c(c1C)C(c1ccc(Cl)cc1)=N[C@@H](CC(=O)NCC1CCN(C(=O)C3CCN(Cc4ccc(-n5c(O)nnc5-c5cc(C(C)C)c(O)cc5O)cc4)CC3)CC1)c1nnc(C)n1-2 [Compound 53, (S)-2-(4-(4-chlorophenyl)-2,3,9-trimethyl-6H-thieno[3,2-f][1,2,4]triazolo[4,3-a][1,4]diazepin-6-yl)-N-((1-(1-(4-(3-(2,4-dihydroxy-5-isopropylphenyl)-5-hydroxy-4H-1,2,4-triazol-4-yl)benzyl)piperidine-4-carbonyl)piperidin-4-yl)methyl)acetamide, trifluoroacetic acid]
- pIC50: > 7.00

SMILES: Cc1sc2c(c1C)C(c1ccc(Cl)cc1)=N[C@@H](CC(=O)NCC(=O)NCCOc1ccc(-n3c(O)nnc3-c3cc(C(C)C)c(O)cc3O)cc1)c1nnc(C)n1-2 [Compound 54, (S)-2-(4-(4-chlorophenyl)-2,3,9-trimethyl-6H-thieno[3,2-f][1,2,4]triazolo[4,3-a][1,4]diazepin-6-yl)-N-(2-((2-(4-(3-(2,4-dihydroxy-5-isopropylphenyl)-5-hydroxy-4H-1,2,4-triazol-4-yl)phenoxy)ethyl)amino)-2-oxoethyl)acetamide]
- pIC50: 6.00 to 7.00
